# Test system: Glioblastoma cells (GS9L)
# Test: Antitumor activity in a glioblastoma xenograft mouse model (GS9L), intracranial treatment
# Format: in vivo, Balb/c nude mice
# Conditions: glioblastoma-bearing mice; single intracranial injection on Day 4; TMZ 4 mg/kg; L-ascorbic acid 1.4 or 7 mg/kg + menadione 14 or 70 μg/kg, then oral L-ascorbic acid 15 g/L and menadione 150 mg/L in water daily
# Description: Six-week-old male Balb/c nude mice were maintained in specific pathogen-free conditions. Glioblastoma cells (GS9L) were cultured in DMEM supplemented with 10% FBS, penicillin (100 U/mL), and streptomycin (100 mg/L) at 37° C. in a humidified atmosphere containing 5% CO2. After deep anesthesia, the mice were positioned in a stereotactic frame. A small craniectomy was performed at 2-3 mm from the midline and 1 mm anterior to the coronal suture. The glioblastoma cells (5×10^5 cells in 5 μL) were stereotactically injected into the brain parenchyma at a depth of 3 mm on Day 1 using an automated injector.
# Vitamin C (L-ascorbic acid) was dissolved in PBS at 10 mM (pH 7.4). Menadione and temozolomide (TMZ) were each dissolved in DMSO at 10 mM as a stock solution and diluted in PBS when in use. The final concentration of DMSO was below 1%. […] The glioblastoma-bearing mice were analyzed on Days 4, 7, 14, 21, and 28 (i.e., 0, 3, 10, 17, and 24 days after drug administration) by MRI to determine the size of the glioblastoma. […]
compound,measurement,value
"Cn1nnc2c(C(N)=O)ncn2c1=O [TMZ, temozolomide]","side-effects (e.g., fever, tetraplegia, or convulsions)","experienced side-effects (e.g., fever, tetraplegia, or convulsions)"
